Each compound was assayed against DNA-PK (Homo sapiens, UniProt P78527) (assay: DNA-PK inhibition assay (radiometric, 33P-ATP)). Conditions: 100 μM ATP, competitive tight-binding fit.
Type: biochemical
Procedure, shortened: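 Approx. 6 nM DNA-PK with 10 µg/mL sheared dsDNA, 0.8 mg/mL peptide substrate and 100 µM 33P-ATP in HEPES pH 7.5, 10 mM MgCl2; 45 min, phosphoric acid quench. Phosphopeptide captured on filter plates and counted by scintillation; Ki from a competitive tight-binding model fit.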
For C[C@H](CNc1cc(-c2cnc3c(ccn3C3COC3)c2)ncn1)c1ccnc2c1OCCO2 [Compound 536], the Ki was under 30 nM.
In the case of C[C@H](CNc1cc(-c2ccc3ccncc3c2)ncn1)c1ccnc2c1OCCO2 [Compound 541], the Ki is reported as under 30 nM.
With CCNC(=O)c1ccnc2c([C@H](C)CNc3cc(-c4ccc(C)nc4)ncn3)cccc12 [Compound 545] the Ki was under 30 nM.
In the case of Cc1ccc(-c2cc(NC[C@@H](C)c3cccc4c(C(=O)NCC(F)(F)F)ccnc34)ncn2)cn1 [Compound 546], the Ki is reported as under 30 nM.
For [2H]C([2H])([2H])NC(=O)c1ccnc2c([C@H](C)CNc3cc(-c4ccc(C)nc4)ncn3)cccc12 [Compound 549], the Ki was under 30 nM.
COc1ncc(-c2cc(NC[C@@H](C)c3ccnc4c3OCCO4)ncn2)cc1CO [Compound 550] gave a Ki of under 30 nM.
Work on C[C@H](CNc1cc(-c2cnc(N)c(Cl)c2)ncn1)c1ccnc2c1OCCO2 [Compound 553] yielded a Ki of under 30 nM.
For C[C@H](CNc1cc(-c2cnc(F)c(N)c2)ncn1)c1ccnc2c1OCCO2 [Compound 554], the Ki was under 30 nM.
In the case of Cc1ccc2cc(-c3cc(NC[C@@H](C)c4ccnc5c4OCCO5)ncn3)ccc2n1 [Compound 555], the Ki is reported as under 30 nM.
For C[C@H](CNc1cc(-c2cc(F)c3ncccc3c2)ncn1)c1ccnc2c1OCCO2 [Compound 556], the Ki was under 30 nM.
Work on C[C@H](CNc1cc(-c2cc(C(F)(F)F)c3ncccc3c2)ncn1)c1ccnc2c1OCCO2 [Compound 557] yielded a Ki of under 30 nM.
In the case of C[C@H](CNc1cc(-c2cnc3ccccc3c2)ncn1)c1ccnc2c1OCCO2 [Compound 559], the Ki is reported as under 30 nM.
In the case of CNC(=O)c1ccnc2c([C@H](C)CNc3cc(-c4ccc(C)nc4)ncn3)cc(F)cc12 [Compound 562], the Ki is reported as under 30 nM.
Compound Cc1ccc(-c2cc(NC[C@@H](C)c3ccnc4cc(C)oc34)ncn2)cn1 [Compound 563] has a Ki of under 30 nM.
Cc1ccc(-c2cc(NC[C@@H](C)c3cccc4c(CO)ccnc34)ncn2)cn1 [Compound 568] gave a Ki of under 30 nM.
For Cc1ccc(-c2cc(NC[C@@H](C)c3cccc4c(C(=O)NCC(F)F)ccnc34)ncn2)cn1 [Compound 569], the Ki was under 30 nM.
With CCNc1ccc(-c2cc(NC[C@@H](C)c3cc(F)cc4c(C(=O)NC)ccnc34)ncn2)cn1 [Compound 572] the Ki was under 30 nM.
CCNc1ccc(-c2cc(NC[C@@H](C)c3ccnc4cc(C)oc34)ncn2)cn1 [Compound 573] gave a Ki of under 30 nM.
CNc1ncc(-c2cc(NC[C@@H](C)c3cc(C)nc4c3OCC4)ncn2)cn1 [Compound 574] showed a Ki of under 30 nM.
In the case of CCNc1ccc(-c2cc(NC[C@@H](C)c3cc(C)nc4c3OCC4)ncn2)cn1 [Compound 575], the Ki is reported as under 30 nM.
In the case of CNC(=O)c1ccnc2c([C@H](C)CNc3cc(-c4cnc(NC)nc4)ncn3)cccc12 [Compound 579], the Ki is reported as under 30 nM.
Work on CNC(=O)c1ccnc2c([C@H](C)CNc3cc(-c4cnc5c(cnn5CCO)c4)ncn3)cccc12 [Compound 580] yielded a Ki of under 30 nM.
Compound CCNc1ccc(-c2cc(NC[C@@H](C)c3cccc4c(C(=O)NC)ccnc34)ncn2)cn1 [Compound 581] has a Ki of under 30 nM.
In the case of CNC(=O)c1ccnc2c([C@H](C)CNc3cc(-c4ccc5ncccc5c4)ncn3)cccc12 [Compound 582], the Ki is reported as under 30 nM.
Work on Cc1ccc(-c2cc(NC[C@@H](C)c3ccnc4c3OCC4(C)C)ncn2)cn1 [Compound 583] yielded a Ki of under 30 nM.
With CNCCNc1ccc(-c2cc(NC[C@@H](C)c3cccc4c(C(=O)NC)ccnc34)ncn2)cn1 [Compound 584] the Ki was under 30 nM.
With CCNc1ncc(-c2cc(NC[C@@H](C)c3ccc(C(=O)NC)cc3OC)ncn2)cn1 [Compound 585] the Ki was under 30 nM.
Compound CNC(=O)c1ccnc2c([C@H](C)CNc3cc(-c4ccc(N)nc4)ncn3)cccc12 [Compound 586] has a Ki of under 30 nM.
CNC(=O)c1ccnc2c([C@H](C)CNc3cc(-c4ccc(S(C)(=O)=O)nc4)ncn3)cccc12 [Compound 587] gave a Ki of under 30 nM.
Work on COc1ncc(-c2cc(NC[C@@H](C)c3ccnc4c3OCC4)ncn2)cc1N [Compound 589] yielded a Ki of under 30 nM.
CNC(=O)c1ccnc2c([C@H](C)CNc3cc(-c4ccc(C(C)=O)cc4)ncn3)cccc12 [Compound 590] was tested, and the Ki was under 30 nM.
C[C@H](CNc1cc(-c2cc(C(F)(F)F)c3ncccc3c2)ncn1)c1ccnc2c1OCC2 [Compound 591] was tested, and the Ki was under 30 nM.
Work on CNC(=O)c1ccnc2c([C@H](C)CNc3cc(-c4cnc(OC)c(OC)c4)ncn3)cccc12 [Compound 592] yielded a Ki of under 30 nM.
With C[C@H](CNc1cc(-c2ccc(N)nc2)ncn1)c1ccnc2c1OCC2 [Compound 594] the Ki was under 30 nM.
For COc1cc(-c2cc(NC[C@@H](C)c3ccnc4c3OCC4)ncn2)cnc1OC [Compound 595], the Ki was under 30 nM.
Work on CC(=O)c1ccc(-c2cc(NC[C@@H](C)c3ccnc4c3OCC4)ncn2)cc1 [Compound 596] yielded a Ki of under 30 nM.
For C[C@H](CNc1cc(-c2cc(F)c3ncccc3c2)ncn1)c1ccnc2c1OCC2 [Compound 597], the Ki was under 30 nM.
CNC(=O)c1ccnc2c([C@H](C)CNc3cc(-c4ccc(F)nc4)ncn3)cccc12 [Compound 603] showed a Ki of under 30 nM.
In the case of [2H]c1nc(NC[C@@H](C)c2cccc3c(C(=O)NC)ccnc23)cc(-c2ccc(C)nc2)n1 [Compound 604], the Ki is reported as under 30 nM.
For CNC(=O)c1ccnc2c([C@H](C)CNc3cc(-c4cncnc4)ncn3)cccc12 [Compound 605], the Ki was under 30 nM.
CNC(=O)c1ccnc2c([C@H](C)CNc3cc(-c4cnc(OC)nc4)ncn3)cccc12 [Compound 606] showed a Ki of under 30 nM.
Work on CCOc1ncc(-c2cc(NC[C@@H](C)c3cccc4c(C(=O)NC)ccnc34)ncn2)cn1 [Compound 607] yielded a Ki of under 30 nM.
Compound CNC(=O)c1ccnc2c([C@H](C)CNc3cc(-c4cnc(N)nc4)ncn3)cccc12 [Compound 608] has a Ki of under 30 nM.
Compound CNC(=O)c1ccnc2c([C@H](C)CNc3cc(-c4cccnc4)ncn3)cccc12 [Compound 612] has a Ki of under 30 nM.
Compound CNC(=O)c1ccnc2c([C@H](C)CNc3cc(-c4ccc(C#N)nc4)ncn3)cccc12 [Compound 613] has a Ki of under 30 nM.
In the case of CNC(=O)c1ccnc2c([C@H](C)CNc3cc(-c4ccc(N5CCN(C(C)=O)CC5)nc4)ncn3)cccc12 [Compound 614], the Ki is reported as under 30 nM.
For CNC(=O)c1ccnc2c([C@H](C)CNc3cc(-c4ccc(OC)nc4)ncn3)cccc12 [Compound 615], the Ki was under 30 nM.
CNC(=O)c1ccnc2c([C@H](C)CNc3cc(-c4cnc(NC(C)C)nc4)ncn3)cccc12 [Compound 618] was tested, and the Ki was under 30 nM.
Work on CNC(=O)c1ccnc2c([C@H](C)CNc3cc(-c4cnc5c(cnn5C(C)(C)C)c4)ncn3)cccc12 [Compound 619] yielded a Ki of under 30 nM.
CNC(=O)c1c(F)cnc2c([C@H](C)CNc3cc(-c4ccc(C)nc4)ncn3)cccc12 [Compound 620] was tested, and the Ki was under 30 nM.
For CNC(=O)c1ccnc2c([C@H](C)CNc3cc(-c4cnc(C)nc4)ncn3)ccc(F)c12 [Compound 622], the Ki was under 30 nM.
CNC(=O)c1ccnc2c([C@H](C)CNc3cc(-c4cnc(NC)nc4)ncn3)ccc(F)c12 [Compound 623] gave a Ki of under 30 nM.
With CNC(=O)c1ccnc2c([C@H](C)CNc3cc(-c4ccc(C)nc4)ncn3)ccnc12 [Compound 624] the Ki was under 30 nM.
CNC(=O)c1ccnc2c([C@H](C)CNc3cc(-c4ccc(N(C)CC5CC5)nc4)ncn3)cccc12 [Compound 625] showed a Ki of under 30 nM.
CC(=O)N1CCOc2c([C@H](C)CNc3cc(-c4cnc(C)nc4)ncn3)cccc21 [Compound 627] showed a Ki of under 30 nM.
CNC(=O)c1ccnc2c([C@H](C)CNc3cc(-c4ccc(NC5CC5)nc4)ncn3)cccc12 [Compound 628] showed a Ki of under 30 nM.
Work on COc1cnc(N)cc1[C@H](C)CNc1cc(-c2ccc(C)nc2)ncn1 [Compound 630] yielded a Ki of under 30 nM.
In the case of CNC(=O)CNc1ccc(-c2cc(NC[C@@H](C)c3cccc4c(C(=O)NC)ccnc34)ncn2)cn1 [Compound 632], the Ki is reported as under 30 nM.
In the case of CNC(=O)c1ccnc2c([C@H](C)CNc3cc(-c4ccc(NCC(=O)N(C)C)nc4)ncn3)cccc12 [Compound 633], the Ki is reported as under 30 nM.
CNC(=O)c1ccnc2c([C@H](C)CNc3cc(-c4ccc(N(C)C5CCN(C)CC5)nc4)ncn3)cccc12 [Compound 634] gave a Ki of under 30 nM.
Compound CNC(=O)c1ccnc2c([C@H](C)CNc3cc(-c4ccc(NC5CCN(C)CC5)nc4)ncn3)cccc12 [Compound 635] has a Ki of under 30 nM.
Compound CNC(=O)c1c(F)cnc2c([C@H](C)CNc3cc(-c4cnc(C)nc4)ncn3)cccc12 [Compound 636] has a Ki of under 30 nM.
In the case of CNC(=O)c1ccnc2c([C@H](C)CNc3cc(-c4cnc(C)nc4)ncn3)cc(F)cc12 [Compound 637], the Ki is reported as under 30 nM.
Work on CNC(=O)c1ccnc2c([C@H](C)CNc3cc(-c4ccc(C)nc4)ncn3)cc(F)c(F)c12 [Compound 638] yielded a Ki of under 30 nM.
For CNC(=O)c1ccnc2c([C@H](C)CNc3cc(-c4ccc(N5CCOCC5)nc4)ncn3)cccc12 [Compound 641], the Ki was under 30 nM.
Compound COc1ccc(C(C)CNc2cc(-c3ccc(C)nc3)ncn2)c(N)n1 (stereo not shown) [Compound 642] has a Ki of under 30 nM.
Work on CNC(=O)c1ccnc2c([C@H](C)CNc3cc(-c4ccc(NCC5CC5)nc4)ncn3)cccc12 [Compound 644] yielded a Ki of under 30 nM.
CNC(=O)c1c(F)cnc2c([C@H](C)CNc3cc(-c4cnc(C)nc4)ncn3)ccc(F)c12 [Compound 645] was tested, and the Ki was under 30 nM.
In the case of Cc1ccc(-c2cc(NCC(C)c3ccnc4c3OCCN4)ncn2)cn1 (stereo not shown) [Compound 648], the Ki is reported as under 30 nM.
With CNC(=O)c1ccnc2c([C@H](C)CNc3cc(-c4ccc(C(F)(F)F)nc4)ncn3)cccc12 [Compound 649] the Ki was under 30 nM.
CNC(=O)c1ccnc2c([C@H](C)CNc3cc(-c4cnc(N5CCOCC5)nc4)ncn3)cccc12 [Compound 650] showed a Ki of under 30 nM.
In the case of CNC(=O)c1ccnc2c([C@H](C)CNc3cc(-c4cncc(C)c4)ncn3)ccc(F)c12 [Compound 651], the Ki is reported as under 30 nM.
CCOc1ncc(-c2cc(NC[C@@H](C)c3ccc(F)c4c(C(=O)NC)ccnc34)ncn2)cn1 [Compound 652] was tested, and the Ki was under 30 nM.
[2H]C([2H])([2H])NC(=O)c1ccnc2c([C@H](C)CNc3cc(-c4cnc(C)nc4)ncn3)cccc12 [Compound 654] showed a Ki of under 30 nM.
CNC(=O)c1ccnc2c([C@H](C)CNc3cc(-c4ccc(=O)n(C)c4)ncn3)cccc12 [Compound 655] gave a Ki of under 30 nM.
Work on CNC(=O)c1ccnc2c([C@H](C)CNc3cc(-c4ccn(C)c(=O)c4)ncn3)cccc12 [Compound 656] yielded a Ki of under 30 nM.
